Measurements taken from PMC10958225, “Therapeutic potential of orally applied KB-R7943 in streptozotocin-induced neuropathy in rats” (Heliyon, 2024).

System: STZ-treated rats with neuropathy
Experiment: Mortality and adverse effects during chronic oral treatment
Format: in vivo
Settings: rat, in vivo, po
Experimental: Three animals per cage were housed for the experiment 2 (Fig. 3B). Rats were gently manipulated daily before undertaking the actual behavior tests. One week after adaptation, the Randl-Stellito (R–S) test, cold plate test (CPT), and formalin tests (FT) were performed at baseline. After that, the diabetes model was made with 48 rats. Twelve animals served as controls. Body weight (BW), coat score (CS), CPT, R–S, and FT were evaluated on day 28th post-STZ, and after that, rats were distributed into the treatment groups as follows. • C-Veh – Controls, vehiculum treatment (n = 12) • NP-Veh – STZ-treated rats with neuropathy, vehiculum treatment (n = 12) • NP-KB-R7943 – 5 mg - STZ-treated rats, with neuropathy, KB-R7943 5 mg/kg treatment (n = 12) • NP-KB-R7943 – 10 mg – STZ-treated rats, with neuropathy, KB-R7943 10 mg/kg (n = 12) • NP-AMT – 10 mg - STZ-treated rats, with neuropathy, amitriptyline 10 mg/kg (n = 12).
OraPlus was used as a vehiculum for gavage (16 gauge feeding tube 10 ml/kg) in all rats. KB-R7943 in two doses (5 or 10 mg/kg) or amitriptyline 10 mg/kg was applied once daily until day 49. Behavior tests were performed […] after the oral gavage of the corresponding day, in the afternoon, starting from 2 p.m. […] On day 41, an FST was performed, and at 2 p.m., rats were placed individually for 24 h to assess spontaneous physical activity. […]

With `N=C(N)SCCc1ccc(OCc2ccc([N+](=O)[O-])cc2)cc1` [KB-R7943, [(2-{4-[(4-nitrophenyl)methoxy]phenyl}ethyl)sulfanyl]methanimidamide] as the compound, how does the mortality during treatment read?
Its mortality during treatment is “No one rat died”.
